Data reported in patent publication US20060069132A1, “Azolecarboxamide herbicides” (priority 2004, published 2006).

Legend:
Test in all cases: Test C pre-/postemergence herbicide test
Surinam grass = assay type: in vivo, Urochloa decumbens
How it was run: (§1)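 Emerged plants at the 1- to 4-leaf stage (2–18 cm), or freshly planted seeds, received test chemicals in a non-phytotoxic solvent mixture with surfactant. Response was visually scored against controls after 12 to 14 days in the greenhouse, on a 0 (no effect) to 100 (complete control) scale.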

corn = assay type: in vivo, Zea mays
How it was run: as §1

woolly cupgrass = assay type: in vivo, Eriochloa villosa
How it was run: as §1

goosegrass = assay type: in vivo, Eleusine indica
How it was run: as §1

kochia = assay type: in vivo, Kochia scoparia
How it was run: as §1

lambsquarters = assay type: in vivo, Chenopodium album
How it was run: as §1

morningglory = assay type: in vivo, Ipomoea coccinea; parameters: key to Plant response rating, Morningglory: 0 = no effect, 100 = complete control
How it was run: as §1

yellow nutsedge = assay type: in vivo, Cyperus esculentus
How it was run: as §1

pigweed = assay type: in vivo, Amaranthus retroflexus
How it was run: as §1

soybean = assay type: in vivo, Glycine max
How it was run: as §1

[1] = Preemergence, 500 g ai/ha, scale 0 to 100, 0 no effect, 100 complete control
[2] = 62 g ai/ha, preemergence, scale 0 to 100
[3] = 250 g ai/ha, scale 0-100, preemergence
[4] = postemergence, 62 g ai/ha, scale 0 to 100
[5] = Postemergence, 250 g ai/ha, scale 0 to 100, 0 no effect, 100 complete control
[6] = postemergence, 125 g ai/ha, scale 0 to 100

`CCc1nn(C(C)(C)C)cc1C(=O)Nc1cccc(C(=O)N(CC)CC)c1` [Compound 182, N-[3-[(diethylamino)carbonyl]phenyl]-1-(1,1-dimethylethyl)-3-ethyl-1H-pyrazole-4-carboxamide] was tested. Which “Surinam Grass plant response rating” value (Surinam grass; [1]) did it give?
The value was 85.

And the pest or weed control at 62 g/ha (Surinam grass; Urochloa decumbens, pre-emergence, 312 h, 62 g ai/ha, preemergence, scale 0 to 100, read-out: Plant response rating, Surinam Grass)?
Its pest or weed control at 62 g/ha is 0%.

What about the pest or weed control at 125 g/ha (Surinam grass; Urochloa decumbens, pre-emergence, 312 h, 125 g ai/ha, scale 0 (no effect) to 100 (complete control), visual, 12 to 14 days, read-out: Plant response rating, Surinam Grass) of the same compound?
The pest or weed control at 125 g/ha was 20%.

And the “Corn plant response rating” value (corn; [1])?
The value was 0.

What about the Corn plant response rating (crop injury, 0 = no effect, 100 = complete kill) at 62 g/ha (corn; Zea mays, pre-emergence, 312 h, 62 g ai/ha, preemergence, scale 0 to 100) of the same compound?
The Corn plant response rating (crop injury, 0 = no effect, 100 = complete kill) at 62 g/ha was 0%.

And the Corn plant response rating (crop injury, 0 = no effect, 100 = complete kill) at 125 g/ha (corn; Zea mays, pre-emergence, 312 h, 125 g ai/ha, scale 0 (no effect) to 100 (complete control), visual, 12 to 14 days)?
The Corn plant response rating (crop injury, 0 = no effect, 100 = complete kill) at 125 g/ha was 0%.

What about the Corn plant response rating (crop injury, 0 = no effect, 100 = complete kill) at 250 g/ha (corn; Zea mays, pre-emergence, 312 h, 250 g ai/ha, scale 0 to 100 (0 no effect, 100 complete control), visual, 12 to 14 days) of the same compound?
Its Corn plant response rating (crop injury, 0 = no effect, 100 = complete kill) at 250 g/ha is 0%.

And the pest or weed control at 62 g/ha (woolly cupgrass; Eriochloa villosa, pre-emergence, 312 h, 62 g ai/ha, preemergence, scale 0 to 100, read-out: Plant response rating, Cupgrass, Woolly)?
The pest or weed control at 62 g/ha was 0%.

And the pest or weed control at 125 g/ha (woolly cupgrass; Eriochloa villosa, pre-emergence, 312 h, 125 g ai/ha, scale 0 (no effect) to 100 (complete control), visual, 12 to 14 days, read-out: Plant response rating, Cupgrass, Woolly)?
The pest or weed control at 125 g/ha was 0%.

What about the pest or weed control at 250 g/ha (woolly cupgrass; Eriochloa villosa, pre-emergence, 312 h, 250 g ai/ha, scale 0 to 100 (0 no effect, 100 complete control), visual, 12 to 14 days, read-out: Plant response rating, Cupgrass, Woolly) of the same compound?
Its pest or weed control at 250 g/ha is 0%.

What about the “Cupgrass, Woolly plant response rating” value (woolly cupgrass; [1]) of the same compound?
Its value is 0.

And the pest or weed control at 62 g/ha (goosegrass; Eleusine indica, pre-emergence, 312 h, 62 g ai/ha, preemergence, scale 0 to 100, read-out: Plant response rating, Goosegrass)?
The pest or weed control at 62 g/ha was 0%.

What about the pest or weed control at 125 g/ha (goosegrass; Eleusine indica, pre-emergence, 312 h, 125 g ai/ha, scale 0 (no effect) to 100 (complete control), visual, 12 to 14 days, read-out: Plant response rating, Goosegrass) of the same compound?
The pest or weed control at 125 g/ha was 25%.

And the “Goosegrass plant response rating” value (goosegrass; [1])?
The value was 80.

What about the pest or weed control at 62 g/ha (kochia; Bassia scoparia, pre-emergence, 62 g ai/ha, preemergence, scale 0 to 100, read-out: Plant response rating, Kochia) of the same compound?
Its pest or weed control at 62 g/ha is 0%.

And the pest or weed control at 125 g/ha (kochia; Bassia scoparia, pre-emergence, 125 g ai/ha, scale 0 (no effect) to 100 (complete control), visual, 12 to 14 days, read-out: Plant response rating, Kochia)?
The pest or weed control at 125 g/ha was 60%.

And the “Kochia plant response rating” value (kochia; [1])?
The value was 90.

And the pest or weed control at 62 g/ha (lambsquarters; Chenopodium album, pre-emergence, 62 g ai/ha, preemergence, scale 0 to 100, read-out: Plant response rating, Lambsquarters)?
Its pest or weed control at 62 g/ha is 25%.

And the pest or weed control at 125 g/ha (lambsquarters; Chenopodium album, pre-emergence, 125 g ai/ha, scale 0 (no effect) to 100 (complete control), visual, 12 to 14 days, read-out: Plant response rating, Lambsquarters)?
The pest or weed control at 125 g/ha was 95%.

And the “Lambsquarters plant response rating” value (lambsquarters; [1])?
Its value is 95.

What about the pest or weed control at 62 g/ha (morningglory; Ipomoea, pre-emergence, 62 g ai/ha, preemergence, scale 0 to 100, read-out: Plant response rating, Morningglory) of the same compound?
The pest or weed control at 62 g/ha was 0%.

And the pest or weed control at 125 g/ha (morningglory; Ipomoea, pre-emergence, 125 g ai/ha, scale 0 (no effect) to 100 (complete control), visual, 12 to 14 days, read-out: Plant response rating, Morningglory)?
Its pest or weed control at 125 g/ha is 15%.

And the “Morningglory plant response rating” value (morningglory; [1])?
The value was 100.

What about the pest or weed control at 62 g/ha (yellow nutsedge; Cyperus, pre-emergence, 62 g ai/ha, preemergence, scale 0 to 100, read-out: Plant response rating, Nutsedge, Yellow) of the same compound?
Its pest or weed control at 62 g/ha is 0%.

And the pest or weed control at 125 g/ha (yellow nutsedge; Cyperus, pre-emergence, 125 g ai/ha, scale 0 (no effect) to 100 (complete control), visual, 12 to 14 days, read-out: Plant response rating, Nutsedge, Yellow)?
Its pest or weed control at 125 g/ha is 0%.

And the “Nutsedge, Yellow plant response rating” value (yellow nutsedge; [1])?
The value was 0.

What about the pest or weed control at 62 g/ha (pigweed; Amaranthus retroflexus, pre-emergence, 62 g ai/ha, preemergence, scale 0 to 100, read-out: Plant response rating, Pigweed) of the same compound?
The pest or weed control at 62 g/ha was 95%.

What about the pest or weed control at 125 g/ha (pigweed; Amaranthus retroflexus, pre-emergence, 125 g ai/ha, scale 0 (no effect) to 100 (complete control), visual, 12 to 14 days, read-out: Plant response rating, Pigweed) of the same compound?
Its pest or weed control at 125 g/ha is 95%.

What about the “Pigweed plant response rating” value (pigweed; [1]) of the same compound?
Its value is 95.

And the plant injury at 62 g/ha (soybean; Glycine max, pre-emergence, 62 g ai/ha, preemergence, scale 0 to 100, read-out: Plant response rating, Soybean)?
The plant injury at 62 g/ha was 0%.

What about the plant injury at 125 g/ha (soybean; Glycine max, pre-emergence, 125 g ai/ha, scale 0 (no effect) to 100 (complete control), visual, 12 to 14 days, read-out: Plant response rating, Soybean) of the same compound?
The plant injury at 125 g/ha was 0%.

And the “Soybean plant response rating” value (soybean; [1])?
The value was 15.

Which results are given for `CCOC(=O)c1cccc(NC(=O)c2nn(C(C)(C)CC)nc2CC)c1` [Compound 375]?
Plant response rating, Surinam Grass (Surinam grass; [2]): 55; Plant response rating (0 = no effect, 100 = complete control), Surinam Grass (Surinam grass; 125 g ai/ha, preemergence): 75; Plant response rating, Surinam Grass (Surinam grass; [3]): 80; Plant response rating, Surinam Grass (Surinam grass; [4]): 20; Plant response rating, Corn (corn; [2]): 0; Plant response rating (0 = no effect, 100 = complete control), Corn (corn; 125 g ai/ha, preemergence): 5; Plant response rating, Corn (corn; [3]): 5; Plant response rating, Corn (corn; [5]): 20; Plant response rating, Corn (corn; [6]): 15; Plant response rating, Corn (corn; [4]): 10; Plant response rating, Cupgrass, Woolly (woolly cupgrass; [2]): 60; Plant response rating (0 = no effect, 100 = complete control), Cupgrass, Woolly (woolly cupgrass; 125 g ai/ha, preemergence): 70; Plant response rating, Cupgrass, Woolly (woolly cupgrass; [3]): 70; Plant response rating, Cupgrass, Woolly (woolly cupgrass; [5]): 45; Plant response rating, Cupgrass, Woolly (woolly cupgrass; [6]): 30; Plant response rating, Cupgrass, Woolly (woolly cupgrass; [4]): 30; Plant response rating, Goosegrass (goosegrass; [2]): 60; Plant response rating (0 = no effect, 100 = complete control), Goosegrass (goosegrass; 125 g ai/ha, preemergence): 100; Plant response rating, Goosegrass (goosegrass; [3]): 100; Plant response rating, Goosegrass (goosegrass; [5]): 50; Plant response rating, Goosegrass (goosegrass; [6]): 15; Plant response rating, Goosegrass (goosegrass; [4]): 15; Plant response rating, Kochia (kochia; [2]): 80; Plant response rating (0 = no effect, 100 = complete control), Kochia (kochia; 125 g ai/ha, preemergence): 100; Plant response rating, Kochia (kochia; [3]): 100; Plant response rating, Kochia (kochia; [5]): 90; Plant response rating, Kochia (kochia; [6]): 85; Plant response rating, Kochia (kochia; [4]): 70; Plant response rating, Lambsquarters (lambsquarters; [2]): 5; Plant response rating (0 = no effect, 100 = complete control), Lambsquarters (lambsquarters; 125 g ai/ha, preemergence): 10; Plant response rating, Lambsquarters (lambsquarters; [3]): 90; Plant response rating, Lambsquarters (lambsquarters; [6]): 40; Plant response rating, Lambsquarters (lambsquarters; [4]): 10; Plant response rating, Morningglory (morningglory; [2]): 0; Plant response rating (0 = no effect, 100 = complete control), Morningglory (morningglory; 125 g ai/ha, preemergence): 0; Plant response rating, Morningglory (morningglory; [3]): 5; Plant response rating, Morningglory (morningglory; [4]): 10; Plant response rating, Nutsedge, Yellow (yellow nutsedge; 31 g ai/ha, scale 0 to 100, last section of Table C, preemergence): 0; Plant response rating, Nutsedge, Yellow (yellow nutsedge; [2]): 0; Plant response rating (0 = no effect, 100 = complete control), Nutsedge, Yellow (yellow nutsedge; 125 g ai/ha, preemergence): 0; Plant response rating, Nutsedge, Yellow (yellow nutsedge; [3]): 0; Plant response rating, Pigweed (pigweed; [2]): 50; Plant response rating (0 = no effect, 100 = complete control), Pigweed (pigweed; 125 g ai/ha, preemergence): 50; Plant response rating, Pigweed (pigweed; [3]): 100; Plant response rating, Pigweed (pigweed; [4]): 80; Plant response rating, Soybean (soybean; [2]): 0; Plant response rating (0 = no effect, 100 = complete control), Soybean (soybean; 125 g ai/ha, preemergence): 0; Plant response rating, Soybean (soybean; [3]): 0
